Values quoted from earlier work as cited in patent US7141382B1, “Methods for detection of IL-18 as an early marker for diagnosis of acute renal failure and predictor of mortality” (priority 2004, dated 2006).
Where two headings read alike, the source gives them in different places.

System: freshly isolated proximal tubules from C57BL/6 mice
Conditions: P<0.01 vs. hypoxia, n=6

Molecule | LDH release (25 minutes of hypoxic injury, hypoxic tubules preincubated with OPH-001 (100 μM), normoxic 11%±1%, vehicle (DMSO) 38%±6%) | LDH release (sublethal (12 minutes) hypoxia, tubules preincubated with recombinant IL-18 (1 μg per 6 ml of tubule suspension), normoxic 10%±1%, vehicle (saline) 13%±1%)
CC(C)[C@H](NC(=O)c1ccc2ccccc2n1)C(=O)N[C@@H](CC(=O)O)C(=O)COc1c(F)cccc1F [OPH-001] | 22%±1% | 
recombinant IL-18: exogenous recombinant IL-18 added to the proximal tubule suspension |  | 18%±1%
